Patent US20110269815A1, “METHODS OF REDUCING CELLULAR PROLIFERATION BY INHIBITING ACSVL3” (THE JOHNS HOPKINS UNIVERSITY, priority 2008, published 2011)

How the values were obtained:
[1] = molecular target: T1, ACSL1 (Rattus norvegicus, UniProt P18163); settings: cited from earlier work
T1 sequence (P18163 1-699): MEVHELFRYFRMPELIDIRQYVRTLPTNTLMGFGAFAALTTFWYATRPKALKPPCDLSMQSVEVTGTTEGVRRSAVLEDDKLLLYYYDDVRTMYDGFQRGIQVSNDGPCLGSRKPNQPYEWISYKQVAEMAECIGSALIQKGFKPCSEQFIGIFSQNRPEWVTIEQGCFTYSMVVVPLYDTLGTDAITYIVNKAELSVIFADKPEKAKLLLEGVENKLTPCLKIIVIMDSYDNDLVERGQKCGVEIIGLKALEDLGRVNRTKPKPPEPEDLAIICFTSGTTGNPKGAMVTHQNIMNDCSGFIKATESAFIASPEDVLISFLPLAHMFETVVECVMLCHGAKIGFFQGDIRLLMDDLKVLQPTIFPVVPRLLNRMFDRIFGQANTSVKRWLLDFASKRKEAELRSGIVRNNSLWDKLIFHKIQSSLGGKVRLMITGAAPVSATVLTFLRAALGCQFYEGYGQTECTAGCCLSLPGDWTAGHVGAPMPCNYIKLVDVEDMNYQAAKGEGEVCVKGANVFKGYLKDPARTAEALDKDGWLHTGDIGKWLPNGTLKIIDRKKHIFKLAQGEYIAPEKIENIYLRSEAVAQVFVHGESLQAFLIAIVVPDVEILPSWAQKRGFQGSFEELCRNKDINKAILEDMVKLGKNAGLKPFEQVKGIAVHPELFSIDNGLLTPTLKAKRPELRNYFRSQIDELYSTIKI

[2] = molecular target: ACSL3 (Rattus norvegicus, UniProt Q63151); settings: cited from earlier work
ACSL3, sequence (Q63151 whole entry): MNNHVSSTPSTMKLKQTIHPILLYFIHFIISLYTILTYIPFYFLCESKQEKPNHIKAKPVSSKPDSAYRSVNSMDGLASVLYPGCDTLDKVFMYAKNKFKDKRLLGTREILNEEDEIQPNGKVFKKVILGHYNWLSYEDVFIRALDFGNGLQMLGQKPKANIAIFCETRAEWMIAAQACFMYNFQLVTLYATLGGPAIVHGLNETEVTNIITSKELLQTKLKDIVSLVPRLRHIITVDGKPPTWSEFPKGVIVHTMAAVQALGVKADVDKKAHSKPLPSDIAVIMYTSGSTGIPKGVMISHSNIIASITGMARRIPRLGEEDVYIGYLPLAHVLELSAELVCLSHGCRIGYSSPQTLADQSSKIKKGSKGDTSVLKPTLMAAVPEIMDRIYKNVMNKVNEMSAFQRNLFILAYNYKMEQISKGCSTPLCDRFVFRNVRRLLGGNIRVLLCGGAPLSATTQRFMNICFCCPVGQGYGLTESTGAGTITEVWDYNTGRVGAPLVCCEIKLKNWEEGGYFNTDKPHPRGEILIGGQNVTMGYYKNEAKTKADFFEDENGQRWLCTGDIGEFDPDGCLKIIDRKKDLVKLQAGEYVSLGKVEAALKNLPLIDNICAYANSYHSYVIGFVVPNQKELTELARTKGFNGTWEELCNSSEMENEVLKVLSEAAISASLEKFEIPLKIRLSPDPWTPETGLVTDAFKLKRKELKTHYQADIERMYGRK

[3] = molecular target: ACSL4 (Rattus norvegicus, UniProt O35547); settings: cited from earlier work
ACSL4, sequence (O35547 whole entry): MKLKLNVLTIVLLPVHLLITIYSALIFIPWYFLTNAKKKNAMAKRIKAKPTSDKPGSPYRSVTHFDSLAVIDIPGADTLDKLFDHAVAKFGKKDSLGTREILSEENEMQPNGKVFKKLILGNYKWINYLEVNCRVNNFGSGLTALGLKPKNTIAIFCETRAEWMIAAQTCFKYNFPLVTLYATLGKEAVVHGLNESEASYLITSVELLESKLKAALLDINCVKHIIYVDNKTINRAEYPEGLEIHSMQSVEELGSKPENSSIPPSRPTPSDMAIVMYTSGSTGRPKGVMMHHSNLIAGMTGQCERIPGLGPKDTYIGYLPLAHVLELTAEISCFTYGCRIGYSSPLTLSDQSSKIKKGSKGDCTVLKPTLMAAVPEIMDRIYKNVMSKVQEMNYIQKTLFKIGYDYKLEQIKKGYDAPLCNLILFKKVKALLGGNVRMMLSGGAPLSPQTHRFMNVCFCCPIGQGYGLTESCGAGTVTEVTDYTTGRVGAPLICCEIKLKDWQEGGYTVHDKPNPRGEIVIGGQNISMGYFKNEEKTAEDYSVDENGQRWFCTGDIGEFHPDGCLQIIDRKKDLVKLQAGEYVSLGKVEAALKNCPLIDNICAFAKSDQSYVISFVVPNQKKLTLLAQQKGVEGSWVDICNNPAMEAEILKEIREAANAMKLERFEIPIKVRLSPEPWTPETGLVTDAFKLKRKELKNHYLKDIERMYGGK

[4] = molecular target: ACSVL1 (FATP2) (Homo sapiens, UniProt O14975); settings: cited from earlier work
ACSVL1 (FATP2), sequence (O14975 whole entry): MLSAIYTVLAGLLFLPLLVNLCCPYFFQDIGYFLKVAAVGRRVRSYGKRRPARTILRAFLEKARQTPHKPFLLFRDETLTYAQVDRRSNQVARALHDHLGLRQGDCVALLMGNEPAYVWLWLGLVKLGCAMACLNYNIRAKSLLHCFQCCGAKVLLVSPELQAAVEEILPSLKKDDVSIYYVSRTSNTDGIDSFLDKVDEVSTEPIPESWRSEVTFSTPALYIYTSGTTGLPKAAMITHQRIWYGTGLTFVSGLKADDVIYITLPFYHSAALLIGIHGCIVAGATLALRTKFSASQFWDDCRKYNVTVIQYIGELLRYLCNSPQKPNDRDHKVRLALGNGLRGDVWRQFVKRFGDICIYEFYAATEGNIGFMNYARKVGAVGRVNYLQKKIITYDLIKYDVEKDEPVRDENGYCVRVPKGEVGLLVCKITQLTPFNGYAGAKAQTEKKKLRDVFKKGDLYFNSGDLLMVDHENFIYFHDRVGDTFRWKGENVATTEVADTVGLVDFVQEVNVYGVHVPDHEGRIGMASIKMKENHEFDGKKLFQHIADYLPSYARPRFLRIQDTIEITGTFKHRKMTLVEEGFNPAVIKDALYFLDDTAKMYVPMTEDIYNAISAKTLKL

[5] = molecular target: T2, ACSL5 (Rattus norvegicus, UniProt O88813); settings: cited from earlier work
T2 sequence (O88813 1-683): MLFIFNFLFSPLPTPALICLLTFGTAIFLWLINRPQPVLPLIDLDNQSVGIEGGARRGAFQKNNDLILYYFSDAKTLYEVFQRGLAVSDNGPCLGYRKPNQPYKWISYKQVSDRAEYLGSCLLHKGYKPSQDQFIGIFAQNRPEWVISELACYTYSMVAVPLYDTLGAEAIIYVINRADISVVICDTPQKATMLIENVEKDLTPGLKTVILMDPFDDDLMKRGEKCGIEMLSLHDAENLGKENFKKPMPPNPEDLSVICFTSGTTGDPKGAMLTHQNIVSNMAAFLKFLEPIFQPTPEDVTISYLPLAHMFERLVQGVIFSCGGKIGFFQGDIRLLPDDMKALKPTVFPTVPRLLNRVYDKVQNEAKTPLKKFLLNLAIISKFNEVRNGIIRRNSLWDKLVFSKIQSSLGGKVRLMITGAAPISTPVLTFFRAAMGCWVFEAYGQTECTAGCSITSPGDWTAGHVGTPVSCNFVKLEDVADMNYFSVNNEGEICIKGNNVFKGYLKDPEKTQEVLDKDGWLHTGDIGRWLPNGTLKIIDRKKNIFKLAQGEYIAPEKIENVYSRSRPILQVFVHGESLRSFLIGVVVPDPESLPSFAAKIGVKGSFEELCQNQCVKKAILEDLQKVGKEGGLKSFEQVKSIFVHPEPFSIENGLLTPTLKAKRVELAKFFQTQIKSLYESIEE

[6] = molecular target: T3, ACSL6 (Rattus norvegicus, UniProt P33124); settings: cited from earlier work
T3 sequence (P33124 1-697): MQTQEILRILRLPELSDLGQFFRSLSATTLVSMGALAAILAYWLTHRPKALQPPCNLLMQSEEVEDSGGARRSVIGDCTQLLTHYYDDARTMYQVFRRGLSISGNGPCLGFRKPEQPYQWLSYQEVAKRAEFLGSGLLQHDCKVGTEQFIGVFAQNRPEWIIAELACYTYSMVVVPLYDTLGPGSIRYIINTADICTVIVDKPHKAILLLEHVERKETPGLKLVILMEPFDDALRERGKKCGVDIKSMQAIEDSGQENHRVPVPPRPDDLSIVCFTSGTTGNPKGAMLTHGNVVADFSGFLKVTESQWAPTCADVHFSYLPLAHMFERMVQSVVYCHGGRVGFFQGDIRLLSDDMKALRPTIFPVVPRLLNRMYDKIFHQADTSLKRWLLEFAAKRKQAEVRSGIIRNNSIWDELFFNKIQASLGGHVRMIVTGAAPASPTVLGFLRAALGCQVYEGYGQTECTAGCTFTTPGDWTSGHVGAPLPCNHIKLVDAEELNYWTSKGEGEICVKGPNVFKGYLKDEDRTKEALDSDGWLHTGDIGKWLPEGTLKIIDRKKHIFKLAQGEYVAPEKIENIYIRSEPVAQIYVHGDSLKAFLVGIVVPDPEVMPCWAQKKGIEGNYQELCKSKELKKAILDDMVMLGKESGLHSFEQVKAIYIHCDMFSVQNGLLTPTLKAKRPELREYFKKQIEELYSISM

[7] = molecular target: ACSVL5 (FATP4) (Mus musculus, UniProt Q91VE0); settings: cited from earlier work
ACSVL5 (FATP4), sequence (Q91VE0 whole entry): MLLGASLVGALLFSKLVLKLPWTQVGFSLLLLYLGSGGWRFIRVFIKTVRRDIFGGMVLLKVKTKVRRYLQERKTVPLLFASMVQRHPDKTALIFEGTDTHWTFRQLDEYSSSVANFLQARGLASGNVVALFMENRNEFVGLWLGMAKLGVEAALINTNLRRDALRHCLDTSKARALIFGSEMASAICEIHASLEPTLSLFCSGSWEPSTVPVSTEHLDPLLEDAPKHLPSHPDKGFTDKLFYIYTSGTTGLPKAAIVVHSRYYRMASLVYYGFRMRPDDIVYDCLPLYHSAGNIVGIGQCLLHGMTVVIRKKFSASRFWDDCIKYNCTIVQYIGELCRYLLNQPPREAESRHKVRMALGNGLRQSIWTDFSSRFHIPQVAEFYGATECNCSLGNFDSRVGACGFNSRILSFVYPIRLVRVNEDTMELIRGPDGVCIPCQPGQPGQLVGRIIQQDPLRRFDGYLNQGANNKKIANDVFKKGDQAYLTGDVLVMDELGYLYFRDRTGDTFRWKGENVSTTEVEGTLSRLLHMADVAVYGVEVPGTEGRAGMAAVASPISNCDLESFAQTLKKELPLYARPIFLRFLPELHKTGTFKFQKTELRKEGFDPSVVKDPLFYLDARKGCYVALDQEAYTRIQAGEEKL

[8] = molecular target: T4, ACSBG2 (Homo sapiens, UniProt Q5FVE4); settings: cited from earlier work
T4 sequence (Q5FVE4 1-666): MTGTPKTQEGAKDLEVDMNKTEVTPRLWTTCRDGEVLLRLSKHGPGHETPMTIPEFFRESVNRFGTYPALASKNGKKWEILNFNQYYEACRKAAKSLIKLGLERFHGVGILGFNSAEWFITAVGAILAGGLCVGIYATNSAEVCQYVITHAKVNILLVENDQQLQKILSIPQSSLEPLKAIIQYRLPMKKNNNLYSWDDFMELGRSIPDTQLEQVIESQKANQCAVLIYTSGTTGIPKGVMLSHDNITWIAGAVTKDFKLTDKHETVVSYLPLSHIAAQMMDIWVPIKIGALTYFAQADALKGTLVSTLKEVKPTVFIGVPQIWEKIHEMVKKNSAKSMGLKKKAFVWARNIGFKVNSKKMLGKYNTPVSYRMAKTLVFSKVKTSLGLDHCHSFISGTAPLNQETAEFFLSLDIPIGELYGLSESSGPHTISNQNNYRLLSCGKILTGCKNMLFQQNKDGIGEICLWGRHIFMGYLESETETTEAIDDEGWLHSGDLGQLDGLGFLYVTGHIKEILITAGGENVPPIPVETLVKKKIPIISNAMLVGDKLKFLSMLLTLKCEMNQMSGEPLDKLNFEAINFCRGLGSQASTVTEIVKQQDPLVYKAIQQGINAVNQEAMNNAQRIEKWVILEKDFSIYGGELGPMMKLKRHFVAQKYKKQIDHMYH

[9] = system: lung (NCI-H23) cancer cell line; settings: cited from earlier work
[10] = system: colon (HCT-15) cancer cell line; settings: cited from earlier work
[11] = system: brain (SF268) cancer cell line; settings: cited from earlier work
[12] = system: cardiolipin; settings: cited from earlier work
[13] = system: ACSVL3 mRNA; assay: Transient ACSVL3 KD in U87 cells, ACSVL3 expression by immunofluorescence and Western blot; format: cell-based, human; settings: day 3 post-transfection, indirect immunofluorescence and Western blot
Experimental: Transient ACSVL3 KD. Four different small interfering RNA (siRNA) constructs targeting different regions of ACSVL3 mRNA were produced using the pSilencer™ kit (Applied Biosystems/Ambion; Austin Tex.). U87 cells were transfected with each construct using siPORT™ Lipid reagent (Applied Biosystems/Ambion). ACSVL3 expression was assessed on day 3 post-transfection by indirect immunofluorescence and Western blot and found to be decreased by siRNA ACSVL3-3 and -4, but not -1 or -2 (data not shown). siRNA ACSVL3-3 (5′-CACGGCTCGCGGCGCTTTA-3′ (SEQ ID NO: 1)) targets by 394-412 of ACSVL3 mRNA and ACSVL3-4 (5′-CGTCTATGGAGTCACTGTG-3′ (SEQ ID NO: 2)) targets by 1861-1879. Transient ACSVL3 KD in Mayo-22 cells was achieved by transfection with ACSVL3-3 using siPORT™ Lipid reagent. Control cells received siRNA with a scrambled nucleotide sequence (supplied by Ambion).
Immunohistochemistry, immunofluorescence, and Western blotting. […] ACSVL3 was detected on Western blots with SuperSignal West Pico chemiluminescent substrate (Pierce Biotechnology, Rockford Ill.). Total and phospho-Akt (ser473) were detected with antibodies from BD Biosciences (San Jose Calif.) and Cell Signaling Technology (Danvers Mass.), respectively, and quantitated with the LiCOR Odyssey dual wavelength infrared system. Protein was determined by the method of Lowry et al. (16).

Compound	inhibition of ACSL1 [1]	inhibition of ACSL3 [2]	inhibition of ACSL4 [3]	inhibition of ACSVL1 (FATP2) [4]	inhibition of ACSL5 [5]	inhibition of ACSL6 [6]	inhibition of ACSVL5 (FATP4) [7]	inhibition of ACSBG2 [8]	caspase activity [9]	caspase activity [10]	caspase activity [11]	mitochondrial level of cardiolipin [12]	ACSVL3 expression [13]
CCC/C=C/C/C=C/C=C/C=N/NN=O [triacsin c]	inhibits	inhibits	inhibits	inhibits	does not inhibit	does not inhibit	does not inhibit	does not inhibit	induced caspase activity	induced caspase activity	induced caspase activity	decreased	
siRNA ACSVL3-4: siRNA 5′-CGTCTATGGAGTCACTGTG-3′ (SEQ ID NO: 2), targets 1861-1879 of ACSVL3 mRNA (listed as DNA, chemistry not given here)													decreased
